Patent EP4501942A1, “PEPTIDOMIMETICS WITH ANTIVIRAL ACTIVITY” (priority 2023, dated 2025)
Like-named read-outs stand apart in the source and are kept apart here.

Experiments:
[1] = Cytotoxicity MTT assay in uninfected A549-ACE2 cells; format: cell-based; conditions: human
Procedure: To evaluate the cytotoxicity profile of the compounds MTT assays were performed in A549-ACE2 cells. Uninfected cells were incubated with a range of compound concentrations (from 100 to 1 µM) for forty-eight hours, time at which the MTT substrate [3-(4,5-dimethylthiazol-2-yl)-2,5-diphenyltetrazolium bromide] was added and the formation of formazan precipitates was evaluated two hours later, using a colorimetric readout. Vehicle-treated (DMSO) cells were used as reference (100 %).

SARS-CoV-2 M^pro protein = SARS-CoV-2 M^pro protein (Severe acute respiratory syndrome coronavirus 2, UniProt P0DTD1); test: biochemical; conditions: for IC50: isolated SARS-CoV-2 M^pro, three separate experiments in duplicate, read-out: IC50, mean±SD; for inhibition at 10 µM: read-out: % of inhibition at 10 µM
SARS-CoV-2 = test: microbe, parasite or virus in culture; format: cell-based; conditions: Severe acute respiratory syndrome coronavirus 2, SARS-CoV-2, A549-ACE2 cells, MOI 0.005, 48 h; for EC50: read-out: EC50; for EC90: read-out: EC90
in vitro [2] = test: in vitro
in vitro [3] = conditions: human
[4] = system: GFP-expressing recombinant vesicular stomatitis virus (VSV-GFP); test: microbe, parasite or virus in culture; format: cell-based; conditions: A549-ACE2, 16 h

CC(C)[C@H](NC(=O)OCc1ccccc1)C(=O)N1C[C@@H](C)[C@@]1(Cc1ccccc1)C(=O)N[C@H](C=O)C[C@@H]1CCNC1=O [Example 28, Z-L-Val-(αS,β'R)-Azf-L-Ala(3S-2-oxopyrrolidin-3-yl)-H]
CC50 at 48 h [1]: > 100 µM
IC50 (SARS-CoV-2 M^pro protein): 0.005 ± 0.002 µM
EC50 (SARS-CoV-2): 2 µM
EC90 (SARS-CoV-2): 12 µM

C[C@@H]1CN(C(=O)[C@@H](NC(=O)OCc2ccccc2)C(C)(C)C)[C@]1(CCCCN)C(=O)N[C@H](C#N)C[C@@H]1CCNC1=O [Example 23]
inhibition at 10 µM (SARS-CoV-2 M^pro protein): 0%

C[C@@H]1CN(C(=O)[C@@H](NC(=O)OCc2ccccc2)C(C)(C)C)[C@]1(Cc1ccccc1)C(=O)N[C@H](C#N)C[C@@H]1CCNC1=O [Example 13]
CC50 at 48 h [1]: > 100 µM
EC50 (SARS-CoV-2): 4 µM
EC90 (SARS-CoV-2): 15 µM

CC(C)[C@H](NC(=O)OCc1ccccc1)C(=O)N1C[C@@H](C)[C@@]1(Cc1ccccc1)C(=O)N[C@H](C#N)C[C@@H]1CCNC1=O [Example 5]
CC50 at 48 h [1]: > 100 µM
IC50 (SARS-CoV-2 M^pro protein): 0.13 ± 0.03 µM
EC50 (SARS-CoV-2): 1 µM
EC90 (SARS-CoV-2): 6 µM

C[C@@H]1CN(C(=O)[C@@H](NC(=O)OC(C)(C)C)C(C)(C)C)[C@]1(Cc1ccccc1)C(=O)N[C@H](/C=C/C(=O)OCc1ccccc1)C[C@@H]1CCNC1=O [Example 32]
inhibition at 10 µM (SARS-CoV-2 M^pro protein): 40%

C[C@@H]1CN(C(=O)[C@H](CCCCN)NC(=O)OCc2ccccc2)[C@]1(Cc1ccccc1)C(=O)N[C@H](C#N)C[C@@H]1CCNC1=O [Example 21]
IC50 (SARS-CoV-2 M^pro protein): 3.66 µM

CC(C)C[C@@]1(C(=O)N[C@H](C#N)C[C@@H]2CCNC2=O)[C@H](C)CN1C(=O)[C@@H](NC(=O)C(F)(F)F)C(C)C [Example 3]
CC50 at 48 h [1]: 100 µM
IC50 (SARS-CoV-2 M^pro protein): 2.58 ± 0.48 µM
EC50 (SARS-CoV-2): 10 µM
EC90 (SARS-CoV-2): 32 µM

CC(C)[C@@H](CC(=O)N1C[C@@H](C)[C@@]1(Cc1ccccc1)C(=O)N[C@H](C#N)C[C@@H]1CCNC1=O)NC(=O)OC(C)(C)C [Example 26]
inhibition at 10 µM (SARS-CoV-2 M^pro protein): 28%

CC(C)C[C@@]1(C(=O)N[C@H](C#N)C[C@@H]2CCNC2=O)[C@H](C)CN1C(=O)[C@@H](NC(=O)OC(C)(C)C)C(C)(C)C [Example 12]
CC50 at 48 h [1]: 100 µM
IC50 (SARS-CoV-2 M^pro protein): 4.7 ± 0.76 µM
EC50 (SARS-CoV-2): 29 µM
EC90 (SARS-CoV-2): > 50 µM

CCCC[C@@H](C#N)NC(=O)[C@]1(CC(C)C)[C@H](C)CN1C(=O)[C@@H](NC(=O)OC(C)(C)C)C(C)(C)C [Example 34, Boc-L-Tbg-(aS,β'R)-Azl-NH-[(1S)-1-cyano]pentane]
inhibition at 10 µM (SARS-CoV-2 M^pro protein): 0%
CC50 (in vitro [2]): > 50 µM

C[C@@H]1CN(C(=O)[C@@H](NC(=O)OCC(F)F)C(C)(C)C)[C@]1(Cc1ccccc1)C(=O)N[C@H](C#N)C[C@@H]1CCNC1=O [Example 18]
CC50 at 48 h [1]: > 100 µM
EC50 (SARS-CoV-2): 4 µM
EC90 (SARS-CoV-2): 7 µM

C[C@@H]1CN(C(=O)[C@@H](NC(=O)OCC(F)F)C(C)(C)C)[C@]1(CC1CCCCC1)C(=O)N[C@H](C#N)C[C@@H]1CCNC1=O [Example 37]
CC50 at 48 h [1]: > 100 µM
EC50 (SARS-CoV-2): 4 µM
EC90 (SARS-CoV-2): 22 µM

C[C@@H]1CN(C(=O)[C@H](CCCCNC(=O)OC(C)(C)C)NC(=O)OCc2ccccc2)[C@]1(Cc1ccccc1)C(=O)N[C@H](C#N)C[C@@H]1CCNC1=O [Example 20]
CC50 at 48 h [1]: 100 µM
EC50 (SARS-CoV-2): 7 µM
EC90 (SARS-CoV-2): 18 µM

CC(C)[C@H](NC(=O)C(F)(F)F)C(=O)N1C[C@@H](C)[C@@]1(Cc1ccccc1)C(=O)N[C@H](C#N)C[C@@H]1CCNC1=O [Example 7]
CC50 at 48 h [1]: > 100 µM
IC50 (SARS-CoV-2 M^pro protein): 0.2 ± 0.03 µM
EC50 (SARS-CoV-2): 2 µM
EC90 (SARS-CoV-2): 12 µM

COC(=O)N[C@H](C(=O)N1C[C@@H](C)[C@@]1(Cc1ccccc1)C(=O)N[C@H](C=O)C[C@@H]1CCNC1=O)C(C)(C)C [Example 30, Methyloxycarbonyl-L-Tbg-(αS,β'R)-Azf-L-Ala(3S-2-oxopyrrolidin-3-yl)-CHO]
CC50 at 48 h [1]: > 100 µM
IC50 (SARS-CoV-2 M^pro protein): 0.048 ± 0.004 µM
EC50 (SARS-CoV-2): 15 µM
EC90 (SARS-CoV-2): 25 µM

CC(C)C[C@@]1(C(=O)N[C@H](C#N)C[C@@H]2CCNC2=O)[C@H](C)CN1C(=O)[C@@H](NC(=O)OCc1ccccc1)C(C)C [Example 1]
CC50 at 48 h [1]: > 100 µM
IC50 (SARS-CoV-2 M^pro protein): 1.99 ± 1 µM
EC50 (SARS-CoV-2): 5 µM
EC90 (SARS-CoV-2): 20 µM

CC(C)C[C@@]1(C(=O)N[C@H](C#N)C[C@@H]2CCNC2=O)[C@H](C)CN1C(=O)[C@@H](NC(=O)OCC(F)F)C(C)(C)C [Example 33]
CC50 at 48 h [1]: > 100 µM
IC50 (SARS-CoV-2 M^pro protein): 5.94 ± 0.69 µM
EC50 (SARS-CoV-2): 16 µM
EC90 (SARS-CoV-2): > 25 µM

Cc1c(-c2ccc(-c3ccccc3F)cc2)nc2ccc(F)cc2c1C(=O)O [Brequinar, reference compound]
CC50 (in vitro [3]): > 50 µM
EC50 [4]: < 0.6 µM
EC90 [4]: < 0.6 µM
